From patent publication US6949571B2, “1,2-dihydropyridine compounds, process for preparation of the same and use thereof” (Eisai Co., Ltd., priority 2000, dated 2005) come the findings set out here.

As usually defined, the IC50 is the concentration at which inhibition is half-maximal. A high value points to a need for much substance.
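Also: primary rat embryonic cortical neurons grown on an astrocyte layer in 96-well plates, used after at least 8 to 10 days in culture, Fura2-AM fluorescence ratio at 340/380 nm excitation.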

This test has as its system AMPA receptor. Particulars: Table 1; primary culture of rat embryo cerebral cortex nerve cells, 2 μM AMPA, 1 μM MK-801.
As for `N#Cc1ccccc1-c1cc(-c2ccccc2[N+](=O)[O-])cn(-c2ccccc2)c1=O` [Example 1, 3-(2-Cyanophenyl)-5-(2-nitrophenyl)-1-phenyl-1,2-dihydropyridin-2-one], half-maximal inhibition (IC50) was put at 0.8 µM.
Turning to `N#Cc1ccccc1-c1cc(-c2ccccc2N)cn(-c2ccccc2)c1=O` [Example 2, 5-(2-Aminophenyl)-3-(2-cyanophenyl)-1-phenyl-1,2-dihydropyridin-2-one], the IC50 is 1.8 µM.
In the case of `CS(=O)(=O)Nc1ccccc1-c1cc(-c2ccccc2C#N)c(=O)n(-c2ccccc2)c1` [Example 3, 3-(2-Cyanophenyl)-5-(2-methylsulfonylaminophenyl)-1-phenyl-1,2-dihydropyridin-2-one] it was 0.3 µM.
In the case of `COc1ncc(-c2ccccn2)cc1-c1ccccc1C#N` [Example 5, 3-(2-Cyanophenyl)-5-(2-pyridyl)-2-methoxypyridine] it was 0.6 µM; in that of `N#Cc1ccccc1-c1cc(-c2ccccn2)c[nH]c1=O` [Example 6, 3-(2-Cyanophenyl)-5-(2-pyridyl)-2(1H)-pyridone], 9.3 µM.
To `N#Cc1ccccc1-c1cc(-c2ccccn2)cn(-c2cccc([N+](=O)[O-])c2)c1=O` [Example 8, 3-(2-Cyanophenyl)-5-(2-pyridyl)-1-(3-nitrophenyl)-1,2-dihydropyridin-2-one] belongs 0.1 µM; to `CS(=O)(=O)Nc1cccc(-n2cc(-c3ccccn3)cc(-c3ccccc3C#N)c2=O)c1` [Example 10, 3-(2-Cyanophenyl)-5-(2-pyridyl)-1-(3-methylsulfonylaminophenyl)-1,2-dihydropyridin-2-one], 0.05 µM.
In turn, `CNc1cccc(-n2cc(-c3ccccn3)cc(-c3ccccc3C#N)c2=O)c1` [Example 11, 3-(2-Cyanophenyl)-5-(2-pyridyl)-1-(3-methylaminophenyl)-1,2-dihydropyridin-2-one] registered an IC50 of 0.06 µM.
To `COCC1CN(c2cccc(-n3cc(-c4ccccn4)cc(-c4ccccc4C#N)c3=O)c2)C(=O)O1` (stereo not drawn) [Example 13, 3-(2-Cyanophenyl)-5-(2-pyridyl)-1-[3-(5-methoxymethyl-2-oxazolidinon-3-yl)-phenyl]-1,2-dihydropyridin-2-one] belongs 0.2 µM.
In the case of `COC(=O)c1cccc(-n2cc(-c3ccccn3)cc(-c3ccccc3C#N)c2=O)c1` [Example 14, 3-(2-Cyanophenyl)-5-(2-pyridyl)-1-(3-methoxycarbonylphenyl)-1,2-dihydropyridin-2-one] it was 0.1 µM; in that of `CNC(=O)c1cccc(-n2cc(-c3ccccn3)cc(-c3ccccc3C#N)c2=O)c1` [Example 15, 3-(2-Cyanophenyl)-5-(2-pyridyl)-1-(3-methylaminocarbonylphenyl)-1,2-dihydropyridin-2-one], 0.05 µM.
In the case of `COc1ccc(-n2cc(-c3ccccn3)cc(-c3ccccc3Cl)c2=O)cc1` [Example 17, 3-(2-Chlorophenyl)-5-(2-pyridyl)-1-(4-methoxyphenyl)-1,2-dihydropyridin-2-one] it was 0.7 µM.
On to `O=c1c(-c2ccccc2Cl)cc(-c2ccccn2)cn1-c1ccc(O)cc1` [Example 18, 3-(2-Chlorophenyl)-5-(2-pyridyl)-1-(4-hydroxyphenyl)-1,2-dihydropyridin-2-one], for which the half-maximal inhibitory concentration (IC50) amounted to 0.02 µM.
In turn, `CN(C)CCOc1ccc(-n2cc(-c3ccccn3)cc(-c3ccccc3Cl)c2=O)cc1` [Example 19, 3-(2-Chlorophenyl)-5-(2-pyridyl)-1-(4-dimethylaminoethoxyphenyl)-1,2-dihydropyridin-2-one] gave an IC50 of 0.08 µM.
Turning to `N#Cc1ccccc1-c1cc(-c2ccccn2)cn(-c2cccc(C=O)c2)c1=O` [Example 20, 3-(2-Cyanophenyl)-5-(2-pyridyl)-1-(3-formylphenyl)-1,2-dihydropyridin-2-one], half-maximal inhibition (IC50) was put at 0.04 µM.
In the case of `N#Cc1ccccc1-c1cc(-c2ccccn2)cn(-c2cccc(CO)c2)c1=O` [Example 21, 3-(2-Cyanophenyl)-5-(2-pyridyl)-1-(3-hydroxymethylphenyl)-1,2-dihydropyridin-2-one] it was 0.03 µM.
`N#CCc1cccc(-n2cc(-c3ccccn3)cc(-c3ccccc3C#N)c2=O)c1` [Example 22, 3-(2-Cyanophenyl)-5-(2-pyridyl)-1-(3-cyanomethylphenyl)-1,2-dihydropyridin-2-one] yielded an IC50 of 0.06 µM.
To `CC(=O)NCc1cccc(-n2cc(-c3ccccn3)cc(-c3ccccc3C#N)c2=O)c1` [Example 23, 3-(2-Cyanophenyl)-5-(2-pyridyl)-1-(3-acetylaminomethylphenyl)-1,2-dihydropyridin-2-one] belongs 0.2 µM.
To `CS(=O)(=O)NCc1cccc(-n2cc(-c3ccccn3)cc(-c3ccccc3C#N)c2=O)c1` [Example 24, 3-(2-Cyanophenyl)-5-(2-pyridyl)-1-(3-methylsulfonylaminomethylphenyl)-1,2-dihydropyridin-2-one] belongs 0.2 µM; to `CC(=O)OCc1cccc(-n2cc(-c3ccccn3)cc(-c3ccccc3C#N)c2=O)c1` [Example 25, 3-(2-Cyanophenyl)-5-(2-pyridyl)-1-(3-acetoxymethylphenyl)-1,2-dihydropyridin-2-one], 0.03 µM.
As for `CSc1ccc(-n2cc(-c3ccccn3)cc(-c3ccccc3C#N)c2=O)cc1` [Example 26, 3-(2-Cyanophenyl)-5-(2-pyridyl)-1-(4-methylthiophenyl)-1,2-dihydropyridin-2-one], the IC50 came to 0.02 µM.
In the case of `CS(=O)(=O)c1ccc(-n2cc(-c3ccccn3)cc(-c3ccccc3C#N)c2=O)cc1` [Example 27, 3-(2-Cyanophenyl)-5-(2-pyridyl)-1-(4-methylsulfonylphenyl)-1,2-dihydropyridin-2-one] it was 0.05 µM; in that of `N#Cc1ccccc1-c1cc(-c2ccsc2C=O)cn(-c2ccccc2)c1=O` [Example 28, 3-(2-Cyanophenyl)-5-(2-formylthiophen-3-yl)-1-phenyl-1,2-dihydropyridin-2-one], 0.2 µM; in that of `CCN(CC)Cc1sccc1-c1cc(-c2ccccc2C#N)c(=O)n(-c2ccccc2)c1` [Example 29, 3-(2-Cyanophenyl)-5-(2-diethylaminomethylthiophen-3-yl)-1-phenyl-1,2-dihydropyridin-2-one], 0.1 µM.
On to `N#Cc1ccccc1-c1cc(-c2ccsc2CO)cn(-c2ccccc2)c1=O` [Example 30, 3-(2-Cyanophenyl)-5-(2-hydroxymethylthiophen-3-yl)-1-phenyl-1,2-dihydropyridin-2-one], for which 0.04 µM corresponded to half-maximal inhibition (IC50).
To `N#Cc1ccccc1-c1cc(-c2ccccn2)cn(Cc2ccccc2)c1=O` [Example 31, 3-(2-Cyanophenyl)-5-(2-pyridyl)-1-benzyl-1,2-dihydropyridin-2-one] belongs 0.1 µM; to `N#Cc1ccccc1-c1cc(-c2ccccn2)c(=O)n(-c2ccccc2)c1` [Example 33, 3-(2-Pyridyl)-5-(2-cyanophenyl)-1-phenyl-1,2-dihydropyridin-2-one], 0.7 µM.
In the case of `N#Cc1ccccc1-c1cc(-c2cccnc2)cn(-c2ccccc2)c1=O` [Example 34, 3-(2-Cyanophenyl)-5-(3-pyridyl)-1-phenyl-1,2-dihydropyridin-2-one] it was 3.7 µM; in that of `N#Cc1ccccc1-c1cc(-c2ccncc2)cn(-c2ccccc2)c1=O` [Example 35, 3-(2-Cyanophenyl)-5-(4-pyridyl)-1-phenyl-1,2-dihydropyridin-2-one], 3.1 µM.
In the case of `N#Cc1ccccc1-c1cc(-c2ccccc2C#N)c(=O)n(-c2ccccc2)c1` [Example 36, 3-(2-Cyanophenyl)-5-(2-cyanophenyl)-1-phenyl-1,2-dihydropyridin-2-one] it was 1.1 µM; in that of `O=c1c(-c2ccccc2)cc(-c2ccccc2)cn1-c1ccccn1` [Example 37, 3,5-Diphenyl-1-(2-pyridyl)-1,2-dihydropyridin-2-one], 0.7 µM; in that of `N#Cc1ccccc1-c1cc(-c2ccccc2)c(=O)n(-c2ccccn2)c1` [Example 38, 3-Phenyl-5-(2-cyanophenyl)-1-(2-pyridyl)-1,2-dihydropyridin-2-one], 6.3 µM.
Compound `N#Cc1ccccc1-c1cc(-c2ccccc2)cn(-c2ccccn2)c1=O` [Example 39, 3-(2-Cyanophenyl)-5-phenyl-1-(2-pyridyl)-1,2-dihydropyridin-2-one] yielded a concentration for half-maximal inhibition (IC50) of 0.3 µM.
To `COc1ccccc1-c1cc(-c2ccccc2C#N)c(=O)n(-c2ccccc2)c1` [Example 42, 3-(2-Cyanophenyl)-5-(2-methoxyphenyl)-1-phenyl-1,2-dihydropyridin-2-one] belongs 0.2 µM; to `COc1ccc(-c2cc(-c3ccccc3C#N)c(=O)n(-c3ccccc3)c2)cc1OC` [Example 43, 3-(2-Cyanophenyl)-5-(3,4-dimethoxyphenyl)-1-phenyl-1,2-dihydropyridin-2-one], 0.5 µM; to `N#Cc1ccccc1-c1cc(-c2ccsc2)cn(-c2ccccc2)c1=O` [Example 44, 3-(2-Cyanophenyl)-5-(thiophen-3-yl)-1-phenyl-1,2-dihydropyridin-2-one], 0.3 µM.
To `N#Cc1ccccc1-c1cc(-c2ccccc2F)cn(-c2ccccc2)c1=O` [Example 45, 3-(2-Cyanophenyl)-5-(2-fluorophenyl)-1-phenyl-1,2-dihydropyridin-2-one] belongs 0.2 µM; to `N#Cc1ccccc1-c1cc(-c2cccs2)cn(-c2ccccc2)c1=O` [Example 46, 3-(2-Cyanophenyl)-5-(thiophen-2-yl)-1-phenyl-1,2-dihydropyridin-2-one], 0.4 µM; to `N#Cc1ccccc1-c1cc(-c2ccoc2)cn(-c2ccccc2)c1=O` [Example 48], 0.04 µM.
To `N#Cc1ccccc1-c1cc(-c2ccco2)cn(-c2ccccc2)c1=O` [Example 49] belongs 0.2 µM; to `COc1ccccc1-c1cc(-c2ccccc2C#N)c(=O)n(-c2cccnc2)c1` [Example 52, 3-(2-Cyanophenyl)-5-(2-methoxyphenyl)-1-(3-pyridyl)-1,2-dihydropyridin-2-one], 1.1 µM; to `COc1ccccc1-c1cc(-c2ccccn2)cn(-c2ccccc2)c1=O` [Example 55, 3-(2-Methoxyphenyl)-5-(2-pyridyl)-1-phenyl-1,2-dihydropyridin-2-one], 0.8 µM.
